Test results as given in patent publication US20140328918A1, “METHODS OF TREATING A SUBJECT AND RELATED PARTICLES, POLYMERS AND COMPOSITIONS” (CERULEAN PHARMA INC., priority 2010, published 2014).
Values joined by “and” are separate entries in the source; they are usually repeats but may differ in a detail not shown here. Equal values may be shown once. Read-outs that look alike come from different tables or passages of the source.

Key:
ADR-RES cells = experiment: Efficacy in docetaxel resistant model ADR-RES (Example 85); format: in vivo, female nu/nu mice
Protocol: ADR-RES cells were grown in culture to 85-90% confluency in RPMI medium supplemented with 10% fetal bovine serum (FBS), 1% glutamine and 1% penicillin/streptomycin.
(§1) The treatments were administered IV into the tail vein at a dose volume of 10 and 20 mL/kg for 30 and 60 mg/kg respectively, beginning on post-implantation day 47, when the mean tumor volume was ca. 150 mm^3 Body weight and tumor volume were measured for three times a week during the dosing period and twice a week thereafter. In addition, animals were also monitored for any morbidity and adverse effects for three times a week during the dosing period and twice a week thereafter.
Tumor volume was calculated with (width×width×length)/2 mm^3 formula. Efficacy was determined by tumor growth inhibition (TGI), tumor growth delay (TGD) and survival. Tumor growth inhibition (TGI) is represented as % and calculated as (1−(treated tumor volume/control tumor volume))×100 when the control group mean tumor volume reached ≧1000 mm^3 Tumor growth delay (TGD) is calculated by subtracting the day when the vehicle treated group reached the maximum tumor size 1000 mm^3 from the day when the treatment group tumor size reached 1000 mm^3.

[1] = Tolerability in mouse melanoma model B16.F10 (Example 84); format: in vivo, male C57BL/6 mice; conditions: 30 mg/kg, 1/wk×3
Protocol: (§2) The treatments were administered IV into the tail vein at a dose volume of 10 and 15 ml/kg for a corresponding dose of 30 mg/kg and 45 mg/kg respectively, beginning on post-implantation day 5, when the mean tumor volume was ca. 60 mm^3 Body weight and tumor volume were measured three times a week. In addition, animals were also monitored for any morbidity and adverse effects three times a week.

[2] = Tolerability in mouse melanoma model B16.F10 (Example 87); format: in vivo, male C57BL/6 mice; conditions: 1/wk×3
Protocol: (§3) The treatments were administered IV into the tail vein at a dose volume of 10 ml/kg, beginning on post-implantation day 5, when the mean tumor volume was ca. 60 mm^3. Animals were monitored for any morbidity and adverse effects three times a week. In addition, body weight and tumor volume were also measured three times a week.

[3] = Tolerability in H1299 model (Example 86); format: in vivo, male nu/nu mice
Protocol: (§4) The treatments were administered IV into the tail vein at a dose volume of 10 and 20 mL/kg for 30 and 60 mg/kg respectively, beginning on post-implantation day 30 when the mean tumor volume was ca. 170 mm^3 (small tumor group), and on day 37 when the mean tumor volume was ca. 440 mm^3 (large tumor group). Body weight and tumor volume were measured for three times a week during the dosing period and twice a week thereafter. In addition, animals were also monitored for any morbidity and adverse effects for three times a week during the dosing period and twice a week thereafter.
(§5) Tumor volume was calculated with (width×width×length)/2 mm^3 formula. Efficacy was determined by tumor growth inhibition (TGI), tumor growth delay (TGD) and survival. Tumor growth inhibition (TGI) is represented as % and calculated as (1−(treated tumor volume/control tumor volume))×100 when the control group mean tumor volume reached ≧1000 mm^3. Tumor growth delay (TGD) is calculated by subtracting the day when the vehicle treated group reached the maximum tumor size 1000 mm^3 from the day when the treatment group tumor size reached 1000 mm^3.

[4] = Body weight and ataxia in MDA-MB-435 tumor-bearing mice (Example 82); format: in vivo, female CD-1 nude mice; conditions: for body weight loss: weekly×two injections
Protocol: The treatments were administered IV into the tail vein at the dose volumes stated above, beginning on post-implantation Day 21, when the mean tumor volume was 150 mm^3 or, for one group, on Day 37, when the mean tumor volume for that group was 433 mm^3.

B16.F10 cells [5] = experiment: Efficacy of docetaxel-2′-alanine-glycolate and -2′-glycine-5050 PLGA-O-acetyl nanoparticles in mouse melanoma model B16.F10 (Example 87); format: in vivo, male C57BL/6 mice; conditions: 1/wk×3
Protocol: B16.F10 cells were grown in culture to 85-90% confluency in MEM-alpha medium supplemented with fetal bovine serum (FBS) and 1% penicillin/streptomycin. Cells were removed from the flask using 0.05% trypsin (passage=4), re-suspended in PBS (density=10×10^6 cells/mL) and were implanted subcutaneously (1×10^6 cells in 100 μL PBS/mouse) into the right flank of male C57BL/6 mice on day 1.
as §3
Tumor volume was calculated with (width×width×length)/2 mm^3 formula. Efficacy was determined by tumor growth inhibition (TGI), tumor growth delay (TGD) and survival. Tumor growth inhibition (TGI) is represented as % and calculated as (1−(treated tumor volume/control tumor volume))×100 when the control group mean tumor volume reached ≧3000 mm^3. Tumor growth delay (TGD) is calculated by subtracting the day when the vehicle treated group reached the maximum tumor size 3000 mm^3 from the day when the treatment group tumor size reached 3000 mm^3. The criterion at which a mouse was removed from the study was tumor volume≧3000 mm^3

H1299 cells = experiment: Efficacy in non-small cell lung carcinoma model H1299 (Example 86); format: in vivo, male nu/nu mice; conditions: 30 mg/kg
Protocol: H1299 cells were grown in culture to 85-90% confluency in RPMI medium supplemented with 10% fetal bovine serum (FBS), 1% glutamine and 1% penicillin/streptomycin. Cells were removed from the culture flask using 0.05% trypsin (passage=4), re-suspended in RPMI medium (density=50×10^6 cells/mL) and were implanted subcutaneously (5×10^6 cells in 100 μL RPMI medium/mouse) into the mammary fat pad area of male nu/nu mice on day 1.
as §4, §5

B16.F10 cells [6] = experiment: Efficacy of docetaxel-2′-5050 PLGA-O-acetyl nanoparticles in mouse melanoma model B16.F10 (Example 84); format: in vivo, male C57BL/6 mice; conditions: 30 mg/kg, 1/wk×3
Protocol: B16.F10 cells were grown in culture to 85-90% confluency in MEM-alpha medium supplemented with 10% fetal bovine serum (FBS) and 1% penicillin/streptomycin. Cells were removed from the culture flask using 0.05% trypsin (passage=4), re-suspended in PBS (density=10×10^6 cells/mL) and were implanted subcutaneously (1×10^6 cells in 100 μL MEM-alpha medium/mouse) into the right flank of male C57BL/6 mice on day 1.
as §2
Tumor volume was calculated with (width×width×length)/2 mm^3 formula. Efficacy was determined by tumor growth inhibition (TGI), tumor growth delay (TGD) and survival. Tumor growth inhibition (TGI) is represented as % and calculated as (1−(treated tumor volume/control tumor volume))×100 when the control group mean tumor volume reached ≧3000 mm^3. Tumor growth delay (TGD) is calculated by subtracting the day when the vehicle treated group reached the maximum tumor size 3000 mm^3 from the day when the treatment group tumor size reached 3000 mm^3. […]

[7] = Tolerability in normal non-tumor-bearing mice: body weight, CBC, serum chemistry, ataxia, sciatic nerve histopathology (Example 83); format: in vivo, male C57BL/6 mice
Protocol: Treatments were administered intravenously on a q7d×2 schedule, i.e., two treatments seven days apart (the first treatment was on Day one). The study ended on Day 14, six days after the 2nd treatment. Blood was collected for complete blood count (CBC) and serum chemistry. Leg muscles were collected so that nerve degeneration could be assessed from the sciatic nerve.

[8] = Tolerability in ADR-RES model (Example 85); format: in vivo, female nu/nu mice
Protocol: as §1

[9] = Lyophilization and reconstitution of PEGylated nanoparticles: appearance and particle size (Zetasizer); format: physicochemical; conditions: PLGA7K-PVA-PEG2K-30 and PLGA7K-PVA-PEG5K-30 PEGylated nanoparticle formulations, lyoprotectant/nanoparticle weight ratio 1:1
Text: Nanoparticles comprising therapeutic agents were lyophilized using three different techniques. The first technique was a simple freeze drying technique where the liquid formulations were frozen with liquid nitrogen followed by drying under vacuum overnight at room temperature. During this simple lyophilization technique a Labconco® freeze dryer (available from Labconco Corp. of Kansas City, Mo.) was used. […] Instead of conventional multi-step ramping and holding, one step slow ramping was used in this approach.
Both the rapid cycle and conventional cycle lyophilization reactions were performed using a VirTis advantage freeze dryer.
A lyoprotectant screen was performed as follows. The critical point for design of a lyophilization cycle was to keep the temperature below the glass transition temperature (Tg′) of the lyoprotectant during the primary drying stage.
In this example, a new strategy of using cyclodextrins and their derivatives as a cryoprotectant was tested.
PEGylated nanoparticle formulations were analyzed for nanoparticle size prior to lyophilization, and lyophilized preparations that were completely resuspended by hand shaking were analyzed for nanoparticle size with a Zetasizer particle sizer. […] Prior to lyophilization, lyoprotectants and non-cyclic carbohydrates were added to PEGylated nanoparticle formulations at different weight ratios.

[10] = Stability of 1H NMR sample stored at ambient temperature; format: physicochemical; conditions: 4 days
Protocol: Docetaxel-2′-aminoethyldithioethyl carbonate.DCA [2.77 g] was dissolved in DCM (100 mL) to produce a clear solution. It was washed with saturated NaHCO3 (2×40 mL). The organic layer was separated, dried over sodium sulfate and filtered. The filtrate was concentrated to ˜10 mL, to which heptanes (100 mL) was slowly added resulting in a suspension. It was stirred for 0.5 h and filtered (30 mL heptanes wash). The filter cake was vacuum-dried at ambient temperature for 16 h to afford the free base of CPX1231 [2.17 g, yield: 88%].

[11] = Body weight and ataxia in SK-OV-3 tumor-bearing mice (Example 81); format: in vivo, female CD-1 nude mice; conditions: 60 mg/kg, weekly×two injections
[12] = Body weight changes in A2780 tumor-bearing mice (Example 78); format: in vivo, female CD-1 nude mice; conditions: Day 36
Protocol: The stock solution was diluted further with PBS to 1.5 mg/mL (for a dose of 15 mg/kg at 10 mL/kg and 30 mg/kg at 20 mL/kg). This formulation was made within 30 minutes of administration to mice.
The treatments were administered 2 times, on Day 8 and Day 15 (weekly×2 injections) for n=8 mice per group. […] On Day 50, the study was ended for all remaining mice. When removed from the study, mice were euthanized by CO2 inhalation.

[13] = mouse, in vivo
Protocol: The stock solution was diluted further with PBS to 0.6, 1.5, 3, 4.5 and 6 mg/mL (for a corresponding dose of 6, 15, 30, 45 and 60 mg/kg) so that all the groups received the same amount of ethanol, polysorbate 80, water and PBS. […] 5) PEGylated O-acetyl-5050-PLGA nanoparticle vehicle at the highest concentration of 6 mg/mL.
The treatments were administered IV into the tail vein at a dose volume of 10 mL/kg, beginning on post-implantation Day 5, when the mean tumor volume was 55 mm^3. The treatments were administered 4 times, on Days 5, 8, 12 and 15 (biweekly×4 injections). On Day 17 post-tumor implantation, mice were euthanized by CO2 inhalation according to the procedure guideline. Blood was collected by cardiac puncture and put into ethylenediaminetetraacetic acid (EDTA) or serum separation blood collection tubes. Whole blood was analyzed on the day of collection for CBC analyses. After the blood clotted and was centrifuged, serum was frozen immediately on dry ice for serum chemistry analyses.
Tolerability was determined by changes in body weight, expressed as a percent of the initial body weight on post-implantation Day 5. […] Other indices of toxicity, complete blood count (CBC) and serum chemistry were determined from blood collected from animals that were euthanized on Day 17 by CO2 inhalation, according to the procedure guideline.

B16.F10 cells [14] = experiment: Efficacy of PEGylated docetaxel-5050 PLGA-O-acetyl nanoparticles (2k/5k mPEG-PLGA), B16.F10 murine melanoma (Example 79); format: in vivo, male C57BL/6 mice; conditions: q7dx3, 30 mg/kg
Protocol: Refer to table for detailed description of formulations.
Tumor volume was calculated with the following equation: (width×width×length)/2 mm^3.

B 16.F10 cells = experiment: CellTiter-Glo cytotoxicity of nanoparticles formed from CDP-linker-docetaxel compounds (Example 131); format: cell-based, mouse; conditions: CellTiter-Glo, 24, 48 and 72 hours of incubation
Protocol: To measure the cytotoxic effect of CDP-linker-docetaxel compounds, the CellTiter-Glo Luminescent Cell Viability Assay (CTG) was used. […] B 16.F10 cells, grown to 85-90% confluency in 150 cm2 flasks (passage<30), were resuspended in media (MEM-alpha, 10% HI-FBS, 1× antibiotic-antimycotic solution) and added to 96-well opaque-clear bottom plates at a concentration of 1500 cells/well in 200 μL/well. The cells were incubated at 37° C. with 5% CO2 for 24 hours. The following day, serial dilutions of 2× concentrated particles and 2× concentrated free drug were made in 12-well reservoirs with media to specified concentrations. The media in the plates was replaced with 100 μL of fresh media and 100 μL of the corresponding serially diluted drug. Three sets of plates were prepared with duplicate treatments. Following 24, 48 and 72 hours of incubation at 37° C. with 5% CO2, the media in the plates was replaced with 100 μL of fresh media and 100 μL of CTG solution, and then incubated for 5 minutes on a plate shaker at room temperature set to 450 rpm and allowed to rest for 15 minutes. Viable cells were measured by luminescence using a microtiter plate reader. The data was plotted as % viability vs. concentration and standardized to untreated cells.

[15] = Particle properties (Zavg, PDI, Dv50, Dv90) by dynamic light scattering; format: physicochemical; conditions: polymer conjugate
Text: Particle solution properties were characterized by dynamic light scattering (DLS) spectrometer.

For `CC(=O)O[C@@]12CO[C@@H]1C[C@H](O)[C@@]1(C)C(=O)[C@H](O)C3=C(C)[C@@H](OC(=O)[C@H](O)[C@@H](NC(=O)OC(C)(C)C)c4ccccc4)C[C@@](O)([C@@H](OC(=O)c4ccccc4)[C@H]21)C3(C)C` [Free docetaxel, docetaxel], the “survival on day 102” value (ADR-RES cells; 30 mg/kg, 1/biwk×3) was 50%, the “survival on day 106” value (ADR-RES cells; 30 mg/kg, 1/wk×2) was 50% and the “day mean tumor volume endpoint (≧1000 mm^3) reached” value (ADR-RES cells; 60 mg/kg, 1/wk×2) was 106 days. For the same compound, the “survival on day 106” value (ADR-RES cells; 60 mg/kg, 1/wk×2) was 50%, the “Maximum body weight loss (%)” value [1] was 12% and the “Maximum body weight loss (%)” value ([2]; 15 mg/kg) was 2%. The “Maximum body weight loss (%)” value ([2]; 30 mg/kg) was 12% and 14%, the “Maximum body weight loss (%)” value ([3]; 30 mg/kg, 1/wk×2, large tumor group) was 19% and the “Maximum body weight loss (%)” value ([3]; 30 mg/kg, 1/wk×2, small tumor group) was 18%. The “body weight loss / hind limb paralysis” value ([3]; 30 mg/kg, large tumor group) was “did not cause any significant body weight loss or hind limb paralysis”, the “body weight loss / hind limb paralysis” value ([3]; 30 mg/kg, small tumor group) was “did not cause any significant body weight loss or hind limb paralysis” and the “body weight loss / hind limb paralysis” value ([3]; 60 mg/kg, large tumor group) was “significant body weight loss and severe hind limb paralysis following the second injection”. For the same compound, the “body weight loss / hind limb paralysis” value ([3]; 60 mg/kg, small tumor group) was “significant body weight loss and severe hind limb paralysis following the second injection”, the Ataxia ([4]; 60 mg/kg) was “Ataxia was observed four days after the second treatment” and the “survival on day 29” value (B16.F10 cells [5]; 15 mg/kg) was 50%. The “survival on day 43” value (B16.F10 cells [5]; 15 mg/kg) was 0%, the “survival on day 36” value (B16.F10 cells [5]; 30 mg/kg) was 50% and the “survival on day 40” value (B16.F10 cells [5]; 30 mg/kg) was 50%. For the same compound, the “survival on day 43” value (B16.F10 cells [5]; 30 mg/kg) was 0%, the “survival on day 45” value (B16.F10 cells [5]; 30 mg/kg) was 0% and the “survival on day 61” value (H1299 cells; large tumor group) was 50%. For the same compound, the “survival on day 80” value (H1299 cells; large tumor group) was 0%, the “survival on day 56” value (H1299 cells; small tumor group) was 50% and the “survival on day 68” value (H1299 cells; small tumor group) was 0%. The “survival on day 40” value (B16.F10 cells [6]) was 50%, the “survival on day 45” value (B16.F10 cells [6]) was 0% and the serum chemistry parameters ([7]; q7d×2) was “did not affect any serum chemistry parameter at doses up to 60 mg/kg”. The “Maximum body weight loss (%)” value ([8]; 30 mg/kg, 1/biwk×3) was 9%, the “body weight loss / hind limb paralysis” value ([8]; 30 mg/kg, 1/biwk×3) was “did not cause any significant body weight loss (<10%) or hind limb paralysis” and the “Maximum body weight loss (%)” value ([8]; 30 mg/kg, 1/wk×2) was 6%. For the same compound, the “body weight loss / hind limb paralysis” value ([8]; 30 mg/kg, 1/wk×2) was “did not cause any significant body weight loss (<10%) or hind limb paralysis”, the “Maximum body weight loss (%)” value ([8]; 60 mg/kg, 1/biwk×3) was 21% and the “body weight loss / hind limb paralysis” value ([8]; 60 mg/kg, 1/biwk×3) was “severe hind limb paralysis following the third injection”. The “Maximum body weight loss (%)” value ([8]; 60 mg/kg, 1/wk×2) was 23% and the “body weight loss / hind limb paralysis” value ([8]; 60 mg/kg, 1/wk×2) was “hind limb paralysis after the 2nd injection followed by recovery”.
For `OC[C@@H](O)[C@@H](O)[C@H](O)[C@H](O)CO` [Mannitol, mannitol], the “maintenance of particle size after simple lyophilization” value (“maintenance of particle size” for short) [9] was “None of mannitol, sucrose and trehalose worked at the same ratio”.
In the case of `OC[C@H]1O[C@@](CO)(O[C@H]2O[C@H](CO)[C@@H](O)[C@H](O)[C@H]2O)[C@@H](O)[C@@H]1O` [Sucrose, sucrose], the “maintenance of particle size” value [9] is reported as “None of mannitol, sucrose and trehalose worked at the same ratio”.
With `OC[C@H]1O[C@H](O[C@H]2O[C@H](CO)[C@@H](O)[C@H](O)[C@H]2O)[C@H](O)[C@@H](O)[C@@H]1O` [Trehalose, trehalose] the “maintenance of particle size” value [9] was “None of mannitol, sucrose and trehalose worked at the same ratio”.
In the case of `CC(=O)O[C@@]12CO[C@@H]1C[C@H](O)[C@@]1(C)C(=O)[C@H](O)C3=C(C)[C@@H](OC(=O)[C@H](OC(=O)OCCSSCCN)[C@@H](NC(=O)OC(C)(C)C)c4ccccc4)C[C@@](O)([C@@H](OC(=O)c4ccccc4)[C@H]21)C3(C)C` [docetaxel-2′-aminoethyldithioethyl carbonate], the “degradation of 1H NMR sample” value [10] is reported as “no indication of degradation”.
For `CC(=O)O[C@@]12CO[C@@H]1C[C@H](O)[C@@]1(C)C(=O)[C@H](O)C3=C(C)[C@@H](OC(=O)[C@H](O)[C@@H](NC(=O)OC(C)(C)C)c4ccccc4)C[C@@](O)([C@@H](OC(=O)c4ccccc4)[C@H]21)C3(C)C` [docetaxel], the Ataxia [11] was “observed in all the mice four days after the second treatment”, the “% of the initial body weight” value ([12]; 15 mg/kg) was 113±11% and the “% of the initial body weight” value ([12]; 30 mg/kg) was 105±9%. For the same compound, the serum chemistry parameters [13] was “did not affect any serum chemistry parameter at doses up to 30 mg/kg”, the body weight loss ([4]; 15 mg/kg) was 10% and the body weight loss ([4]; 30 mg/kg) was 14%. The “body weight above the initial on Day 14” value ([7]; 30 mg/kg q7d×2) was 3%, the “body weight above the initial on Day 14” value ([7]; 45 mg/kg q7d×2) was 2% and the “weight gained at the second treatment” value ([7]; 30 and 45 mg/kg q7d×2) was “up to 7%”. The “day average tumor volume reached the end point of 3000 mm^3” value (B16.F10 cells [14]) was 37 days.
For `OC[C@H]1O[C@@H]2O[C@H]3[C@H](O)[C@@H](O)[C@@H](O[C@H]4[C@H](O)[C@@H](O)[C@@H](O[C@H]5[C@H](O)[C@@H](O)[C@@H](O[C@H]6[C@H](O)[C@@H](O)[C@@H](O[C@H]7[C@H](O)[C@@H](O)[C@@H](O[C@H]1[C@H](O)[C@H]2O)O[C@@H]7CO)O[C@@H]6CO)O[C@@H]5CO)O[C@@H]4CO)O[C@@H]3CO` [α-CD, α cyclodextrin], the “maintenance of particle size” value [9] was “also worked at the same weight ratio”.
For `OC[C@H]1O[C@@H]2O[C@H]3[C@H](O)[C@@H](O)[C@@H](O[C@H]4[C@H](O)[C@@H](O)[C@@H](O[C@H]5[C@H](O)[C@@H](O)[C@@H](O[C@H]6[C@H](O)[C@@H](O)[C@@H](O[C@H]7[C@H](O)[C@@H](O)[C@@H](O[C@H]8[C@H](O)[C@@H](O)[C@@H](O[C@H]9[C@H](O)[C@@H](O)[C@@H](O[C@H]1[C@H](O)[C@H]2O)O[C@@H]9CO)O[C@@H]8CO)O[C@@H]7CO)O[C@@H]6CO)O[C@@H]5CO)O[C@@H]4CO)O[C@@H]3CO` [γ-CD, γ cyclodextrin], the “maintenance of particle size” value [9] was “also worked at the same weight ratio”.
Work on CDP-2′-glycine-docetaxel yielded an IC50 (B 16.F10 cells) of 1.2 to 3.7 nM.
For CDP-Alanine Glycolate-Docetaxel, the IC50 (B 16.F10 cells) was 0.4 to 2 nM.
CDP-Gly-SN-38 showed a particle size [15] of 27.9 nm.
Compound CDP-dithiolethyloxy-carbonate-docetaxel has an IC50 (B 16.F10 cells) of 23 nM.
Compound “CDP-hexanoate-docetaxel [CDP-hexanoate-docetaxel nanoparticles]” has an IC50 (B 16.F10 cells) of 325 to 440 nM.
